Reference: publication PMC2409906, “Establishment and characterisation of a human carcinoma cell line with acquired resistance to Aplidin™” (British Journal of Cancer, 2004)
One block for each molecule: values may come before it. Starred links: 1 amine or outer side, 2 acyl side, 3 side chain; linkers in the order of their positions; H or OH if unused. Positions of bridges follow the written chain, without caps; N, C: chain ends. Non-standard residues stand in square brackets, D forms with d. Residues, ends and D or L forms follow the SMILES beside them. *: point of attachment. X1 = CC[C@H](C)[C@@H](N[*:1])[C@@H](O)CC(=O)O[C@H](C(=O)[C@H](C)C(=O)[*:2])C(C)C; X3 = CC[C@H](C)[C@@H](N[*:1])[C@@H](O)CC(=O)[*:2]; X2 = CN(C)c1ccc2c(CC(=O)*)cc(=O)oc2c1; NMeY = CN[C@@H](Cc1ccc(O)cc1)C(=O)O; dNMeL = CN[C@H](CC(C)C)C(=O)O; Hiv = CC(C)[C@H](O)C(=O)O; Pyruvoyl = CC(=O)C(=O)*; Lac = C[C@H](O)C(=O)O

Legend:
[1] = target: T1, Pgp170 in LoVo-Dox cells (Homo sapiens, UniProt P08183); test: Calcein-AM accumulation in LoVo-Dox cells (fluorescence microscopy); format: cell-based; conditions: 50 μM verapamil, Calcein-AM loaded for 1 h
T1 construct: endogenous in cells; host or cells: LoVo-Dox (doxorubicin-selected LoVo colorectal carcinoma cells)
Description: (§1) Cells were stained with APL-dmac, Calcein-AM or Hoechst-33342 by direct addition of the fluorescent compounds in the cell culture dishes, incubated at 37°C for the times indicated, washed in PBS and examined by fluorescence microscopy.

[2] = system: HeLa-APL cells; test: Sulphorhodamine B (SRB) growth inhibition assay, resistant subline; format: cell-based, human; conditions: HeLa-APL vs HeLa wt; for crossresistance of HeLa-APL cells: data not shown; for crossresistance of HeLa-APL cells (IC50 values, SRB cell growth assay): 48 or 72 h exposure
Description: HeLa, HeLa-APL, LoVo and LoVo-dox ([Grandi et al, 1986]) cells were maintained in DMEM supplemented with 10% FCS and 100 U ml^−1 penicillin and streptomycin at 37°C and 5% CO2.
Cells were washed twice with PBS, fixed for 15 min in 1% glutaraldehyde solution, rinsed twice in PBS, and stained in 0.4% SRB solution for 30 min at room temperature. Cells were then rinsed several times with 1% acetic acid solution and air-dried. Sulphorhodamine B was then extracted in 10 mM trizma base solution and the absorbance measured at 490 nm. Cell survival was expressed as percentage of control cell growth.

[3] = parameters: method as in Vervoort and Fenical, 2000; Joullie et al, 2003; conditions: ref Vervoort and Fenical, 2000; Joullie et al, 2003; cited from earlier work
[4] = system: HeLa wt and HeLa-APL cells; test: Detection of drug in cell extracts by Maldi-TOF mass spectrometry; format: in vitro ADME, human; conditions: 450 nM, 1 h exposure, methanol cell extracts, Maldi-TOF MS, parental and HeLa-APL cells
Description: To detect minute amounts of APL present in the cellular extracts, Matrix-Assisted Laser Desorption/Ionisation-Time Of Flight Mass Spectrometry (Maldi-TOF MS) technique was used. Cell cultures were treated with vehicle or APL at the concentrations and times indicated in the text, washed with PBS and harvested by centrifugation at 6000 r.p.m. for 5 min at 4°C. Cell pellets were washed with PBS and extracted with cold methanol. Equal amounts of extract were applied on a template, air dried, mixed with 0.2–0.5 μl matrix (10 mg ml^−1 dihydroxy benzoic acid in water :acetonitrile mix, 1% trifluoroacetic acid) and air dried. Analyses were performed on a Voyager DE Pro (PerSeptive Biosystems, Framingham, MS, USA). Mass spectra were averaged over 100–200 laser shots from a nitrogen laser (337 nm) operating in a linear mode. Ionised molecules were accelerated with a voltage of 20 kV. The following peptides were used as external markers: intact human insulin, human insulin alpha-chain, human insulin beta-chain and cytochrome c.

[5] = system: HeLa wt and HeLa-APL cells; test: Intracellular accumulation of fluorescent APL-dmac (fluorescence microscopy); format: in vitro ADME, human
Description: as §1

[6] = system: human leukaemia samples; conditions: ref Bresters et al, 2003; cited from earlier work

T1 sequence (P08183 whole entry): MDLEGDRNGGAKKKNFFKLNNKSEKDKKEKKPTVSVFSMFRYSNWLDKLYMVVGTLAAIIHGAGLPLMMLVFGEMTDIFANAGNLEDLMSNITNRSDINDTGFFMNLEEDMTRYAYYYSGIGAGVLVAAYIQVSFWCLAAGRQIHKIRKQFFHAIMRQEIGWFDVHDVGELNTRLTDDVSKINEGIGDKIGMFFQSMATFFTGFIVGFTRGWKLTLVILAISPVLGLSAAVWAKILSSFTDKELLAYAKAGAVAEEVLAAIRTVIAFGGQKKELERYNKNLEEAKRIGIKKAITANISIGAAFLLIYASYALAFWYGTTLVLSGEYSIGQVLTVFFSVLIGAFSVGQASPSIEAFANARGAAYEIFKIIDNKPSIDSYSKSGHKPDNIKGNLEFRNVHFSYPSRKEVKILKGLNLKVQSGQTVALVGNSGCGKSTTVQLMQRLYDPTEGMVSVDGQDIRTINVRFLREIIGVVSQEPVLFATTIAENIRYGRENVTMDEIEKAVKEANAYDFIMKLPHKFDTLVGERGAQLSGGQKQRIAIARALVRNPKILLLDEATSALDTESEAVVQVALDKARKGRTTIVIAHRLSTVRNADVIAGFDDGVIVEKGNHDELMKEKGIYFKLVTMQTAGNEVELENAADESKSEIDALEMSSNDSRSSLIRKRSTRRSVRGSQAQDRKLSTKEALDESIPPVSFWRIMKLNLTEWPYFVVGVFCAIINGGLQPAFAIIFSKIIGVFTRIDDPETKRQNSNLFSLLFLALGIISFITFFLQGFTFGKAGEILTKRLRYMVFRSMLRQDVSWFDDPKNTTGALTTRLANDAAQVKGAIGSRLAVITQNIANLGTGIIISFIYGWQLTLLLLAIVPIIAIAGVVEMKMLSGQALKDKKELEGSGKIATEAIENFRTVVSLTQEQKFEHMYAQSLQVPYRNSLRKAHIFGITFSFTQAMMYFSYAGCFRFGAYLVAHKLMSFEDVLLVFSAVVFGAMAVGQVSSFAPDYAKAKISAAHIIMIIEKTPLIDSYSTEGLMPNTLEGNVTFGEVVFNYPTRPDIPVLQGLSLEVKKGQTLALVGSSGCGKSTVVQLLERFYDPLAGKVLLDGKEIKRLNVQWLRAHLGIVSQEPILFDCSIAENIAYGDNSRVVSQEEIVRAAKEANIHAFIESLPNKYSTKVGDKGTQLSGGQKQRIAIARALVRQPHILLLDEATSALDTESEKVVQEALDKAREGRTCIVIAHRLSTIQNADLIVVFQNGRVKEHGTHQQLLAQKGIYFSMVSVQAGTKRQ

Molecule: COc1ccc(CCN(C)CCCC(C#N)(c2ccc(OC)c(OC)c2)C(C)C)cc1OC (centres unmarked) [verapamil]
effect of pre-incubation on calcein-AM accumulation [1]: accumulation of calcein-AM in LoVo-Dox-resistant cells to an extent similar to that observed in sensitive LoVo cells

Molecule: didemnin B
crossresistance of HeLa-APL cells to APL structural analogues ([2]; 48 h exposure, SRB assay, triplicate plates): comparable crossresistance | cytotoxic activity relative to APL [3]: comparable to that of APL

Molecule: O=C1c2c(O)ccc(O)c2C(=O)c2c(NCCNCCO)ccc(NCCNCCO)c21 [mitoxantrone]
crossresistance of HeLa-APL cells [2]: no significant crossresistance

crossresistance of HeLa-APL cells (IC50 values, SRB cell growth assay) ([2]; triplicate plates): no significant crossresistance
Molecule: COc1cc([C@@H]2c3cc4c(cc3[C@@H](O[C@@H]3O[C@@H]5CO[C@@H](C)O[C@H]5[C@H](O)[C@H]3O)[C@H]3COC(=O)[C@H]23)OCO4)cc(OC)c1O [etoposide]

Molecule: N[C@@H](Cc1ccc(N(CCCl)CCCl)cc1)C(=O)O [melphalan]
crossresistance of HeLa-APL cells [2]: no significant crossresistance

Molecule: N.N.[Cl][Pt][Cl] [cisplatin]
crossresistance of HeLa-APL cells (IC50 values, SRB cell growth assay) ([2]; triplicate plates): no significant crossresistance

Molecule: CC[C@@]1(O)C(=O)OCc2c1cc1n(c2=O)Cc2cc3ccccc3nc2-1 [camptothecin]
crossresistance of HeLa-APL cells (IC50 values, SRB cell growth assay) ([2]; triplicate plates): no significant crossresistance

crossresistance of HeLa-APL cells (IC50 values, SRB cell growth assay) ([2]; triplicate plates): no significant crossresistance
Molecule: Nc1ncn([C@@H]2O[C@H](CO)[C@@H](O)[C@H]2O)c(=O)n1 [5-azacytidine]

crossresistance of HeLa-APL cells (IC50 values, SRB cell growth assay) ([2]; triplicate plates): no significant crossresistance
Molecule: CC(=O)O[C@H]1C(=O)[C@@]2(C)[C@H]([C@H](OC(=O)c3ccccc3)[C@]3(O)C[C@H](OC(=O)[C@H](O)[C@@H](NC(=O)c4ccccc4)c4ccccc4)C(C)=C1C3(C)C)[C@]1(OC(C)=O)CO[C@@H]1C[C@@H]2O [paclitaxel]

Molecule: CC[C@H](C)[C@H]1NC(=O)[C@@H](NC(=O)[C@@H](CC(C)C)N(C)C(=O)[C@@H]2CCCN2C(=O)[C@H](C)O)[C@@H](C)OC(=O)[C@H](Cc2ccc(OC)cc2)N(C)C(=O)[C@@H]2CCCN2C(=O)[C@H](CC(C)C)NC(=O)[C@H](C(C)C)OC(=O)C[C@@H]1O [tamandarin A] (H-[Lac]P[dNMeL]T[X3][Hiv]LP[NMeY](Me); ester 4-C)
cytotoxic activity relative to APL [3]: comparable to that of APL

crossresistance of HeLa-APL cells (IC50 values, SRB cell growth assay) ([2]; triplicate plates): no significant crossresistance
Molecule: Nc1nc2nc[nH]c2c(=S)[nH]1 [6-thioguanine]

crossresistance of HeLa-APL cells (IC50 values, SRB cell growth assay) ([2]; triplicate plates): no significant crossresistance
Molecule: CC[C@]1(O)C[C@@H]2CN(CCc3c([nH]c4ccccc34)[C@@](C(=O)OC)(c3cc4c(cc3OC)N(C)[C@H]3[C@@](O)(C(=O)OC)[C@H](OC(C)=O)[C@]5(CC)C=CCN6CC[C@]43[C@@H]65)C2)C1 [vinblastine]

Molecule: O=C(O)CCCc1ccc(N(CCCl)CCCl)cc1 [chlorambucil]
crossresistance of HeLa-APL cells [2]: no significant crossresistance

Molecule: CC[C@H](C)[C@H]1NC(=O)[C@@H](NC(=O)[C@@H](CC(C)C)N(C)C(=O)[C@@H]2CCCN2C(=O)C(C)=O)[C@@H](C)OC(=O)[C@H](Cc2ccc(OC)cc2)N(C)C(=O)[C@@H]2CCCN2C(=O)[C@H](CC(C)C)NC(=O)[C@@H](C)C(=O)[C@H](C(C)C)OC(=O)C[C@@H]1O [APL, Aplidin™] (Pyruvoyl-P[dNMeL]T[X1]LP[NMeY](Me); ester 3-C)
presence of the intact drug in cells [4]: confirmed

Molecule: CC[C@H](C)[C@H]1NC(=O)[C@@H](NC(=O)[C@@H](CC(C)C)N(C)C(=O)Cc2cc(=O)oc3cc(N(C)C)ccc23)[C@@H](C)OC(=O)[C@H](Cc2ccc(OC)cc2)N(C)C(=O)[C@@H]2CCCN2C(=O)[C@H](CC(C)C)NC(=O)[C@@H](C)C(=O)[C@H](C(C)C)OC(=O)C[C@@H]1O [APL-dmac, aplidin-dimethylaminocoumarin] (X2-[dNMeL]T[X1]LP[NMeY](Me); ester 2-C)
internalisation and accumulation in the cytoplasmic compartment ([5]; 450 nM APL-dmac, 1 h, 37°C, HeLa wt and HeLa-APL): consistent in both cell systems | internalisation after long-term treatment ([5]; not shown): remained internalised | presence of the intact drug in cells [4]: detected in both cell lines

Molecule: COc1cc(NS(C)(=O)=O)ccc1Nc1c2ccccc2nc2ccccc12 [amsacrine]
crossresistance of HeLa-APL cells [2]: no significant crossresistance

Molecule: Nc1nc(F)nc2c1ncn2[C@@H]1O[C@H](CO)[C@@H](O)[C@@H]1O [fludarabine]
crossresistance of HeLa-APL cells (IC50 values, SRB cell growth assay) ([2]; triplicate plates): no significant crossresistance

crossresistance of HeLa-APL cells (IC50 values, SRB cell growth assay) ([2]; triplicate plates): no significant crossresistance
Molecule: Sc1ncnc2nc[nH]c12 [6-mercaptopurine]

Molecule: Nc1ccn([C@@H]2O[C@H](CO)[C@@H](O)C2(F)F)c(=O)n1 [2′,2′-difluorodeoxycytidine]
crossresistance with APL [6]: trend for crossresistance

crossresistance of HeLa-APL cells (IC50 values, SRB cell growth assay) ([2]; triplicate plates): no significant crossresistance
Molecule: COc1cccc2c1C(=O)c1c(O)c3c(c(O)c1C2=O)C[C@@](O)(C(=O)CO)C[C@@H]3O[C@H]1C[C@H](N)[C@H](O)[C@H](C)O1 [doxorubicin]
